Measurements as given in paper PMC10002220, “In Vivo Reversal of P-Glycoprotein-Mediated Drug Resistance in a Breast Cancer Xenograft and in Leukemia Models Using a Novel, Potent, and Nontoxic Epicatechin EC31” (International Journal of Molecular Sciences, 2023).
Like-named read-outs stand apart in the source and are kept apart here.

Experiments:
[1] = Pharmacokinetics of methylated catechin derivatives in plasma; format: in vivo, BALB/c mice; details: BALB/c, mouse; for AUC(0-inf): read-out: AUC0-infinity (converted)
Protocol: Figure 4 Pharmacokinetics of methylated catechin derivatives and their effects on the PK of PTX. BALB/c mice were i.v. injected with 10 mg/kg or i.p. injected with 30 mg/kg of modulators. At 10, 30, 60, 180, 420, 840, and 1080 min postadministration, animals were sacrificed to collect their blood, and then the plasma concentration of modulator was determined using UPLC-MS/MS. The % of bioavailability of each modulator injected through i.p. injection route was calculated by comparing it to its plasma level when injected via i.v. injection. […] (E) Pharmacokinetic (PK) profiles of 4 potent methylated catechin derivatives were summarized. (F) The effect of modulators (GC51, EC31, or C25) on the PK of PTX was firstly determined through i.p. injection of modulator at 30 mg/kg 1 h prior to i.v. injection of 12 mg/kg PTX. At 10, 30, 60, 120, 240, and 420 min postadministration of PTX, animals were sacrificed. Plasma level of PTX was quantified through LC/MSMS. The dashed line indicates the corresponding EC50 of modulator in vitro for reversing PTX resistance. […] There were 3 mice at each time point. All pharmacokinetic parameters were calculated with the pharmacokinetic software Summit® PK solution. Two-tailed test was conducted for the AUC value of PTX alone and cotreatment. […] N.S. = not significant. / = not applicable.
In group 1, BALB/c mice were injected intravenously (i.v.) with 10 mg/kg of modulator, and their blood was collected at 10, 30, 60, 120, 240, and 480 min postadministration. In group 2, BALB/c mice were injected intraperitoneally (i.p.) with 30 mg/kg of modulator, and their blood was collected at 10, 30, 60, 180, 420, 840, and 1080 min postadministration.
The pharmacokinetics of PTX was studied with or without the coadministered modulator. PTX (12 mg/kg i.v.) alone was injected into the BALB/c mice. For the combination study, modulator (30 mg/kg i.p.) was injected 1 h before injecting PTX (12 mg/kg i.v.). The blood was collected at 10, 30, 60, 120, 240, and 420 min after PTX administration. Blood samples were spun at 14,000 rpm for 10 min at 4 °C to collect plasma supernatant. Plasma concentration of methylated catechin derivatives or PTX was determined through UPLC-QQQ-MS as described in Section 4.9. Pharmacokinetic parameters were analyzed with PK Solutions 2.0 (Summit Research Service, Ashland, OH, USA).

K562/P-gp leukemia = assay: In vivo efficacy in reversing DOX resistance in human leukemia K562/P-gp model; design: species or system NOD/SCID mice
Protocol: (§1) Irradiated BDF1 mice were i.p. inoculated with P388ADR cells, which caused mouse leukemia. Irradiated NOD/SCID mice were i.v. inoculated with K562/P-gp cells, which caused human leukemia. The mice were randomized and treated with (1) control treatment (no treatment), (2) DOX alone, and (3) EC31 + DOX. Treatments were given as indicated by the arrows. The number of mice deaths in each treatment group was recorded every day. (A) The percent survival of mice infected with P388ADR. (B) The percent survival of mice infected with K562/P-gp. The mice median survival days and the increased lifespan (ILS) were analyzed with Log-rank (Mantel–COX) test in Prism 5.0. Student’s paired t test was conducted as indicated. ** represents p < 0.01, and *** represents p < 0.001. N.S. = not significant.
The mice were randomly distributed into 3 groups: (1) control group (no treatment), (2) DOX (0.9 mg/kg i.v.) alone, and (3) cotreatment with EC31 (30 mg/kg i.p.) being injected 1 h prior to DOX (0.9 mg/kg i.v.) administration. EC31 and DOX were injected on days 7, 11, 19, 23, and 27. Before each treatment, 0.2 mg/mL of DOX was freshly prepared using PBS. Mice survival and body weight were monitored during the study period.

P-gp [2] = molecular target: T1, P-gp (Homo sapiens, UniProt P08183); assay: EC50 for reversing drug resistance in K562/P-gp cells (cell proliferation assay); details: EC50 for Reversing MDR
T1 sequence (P08183 whole entry): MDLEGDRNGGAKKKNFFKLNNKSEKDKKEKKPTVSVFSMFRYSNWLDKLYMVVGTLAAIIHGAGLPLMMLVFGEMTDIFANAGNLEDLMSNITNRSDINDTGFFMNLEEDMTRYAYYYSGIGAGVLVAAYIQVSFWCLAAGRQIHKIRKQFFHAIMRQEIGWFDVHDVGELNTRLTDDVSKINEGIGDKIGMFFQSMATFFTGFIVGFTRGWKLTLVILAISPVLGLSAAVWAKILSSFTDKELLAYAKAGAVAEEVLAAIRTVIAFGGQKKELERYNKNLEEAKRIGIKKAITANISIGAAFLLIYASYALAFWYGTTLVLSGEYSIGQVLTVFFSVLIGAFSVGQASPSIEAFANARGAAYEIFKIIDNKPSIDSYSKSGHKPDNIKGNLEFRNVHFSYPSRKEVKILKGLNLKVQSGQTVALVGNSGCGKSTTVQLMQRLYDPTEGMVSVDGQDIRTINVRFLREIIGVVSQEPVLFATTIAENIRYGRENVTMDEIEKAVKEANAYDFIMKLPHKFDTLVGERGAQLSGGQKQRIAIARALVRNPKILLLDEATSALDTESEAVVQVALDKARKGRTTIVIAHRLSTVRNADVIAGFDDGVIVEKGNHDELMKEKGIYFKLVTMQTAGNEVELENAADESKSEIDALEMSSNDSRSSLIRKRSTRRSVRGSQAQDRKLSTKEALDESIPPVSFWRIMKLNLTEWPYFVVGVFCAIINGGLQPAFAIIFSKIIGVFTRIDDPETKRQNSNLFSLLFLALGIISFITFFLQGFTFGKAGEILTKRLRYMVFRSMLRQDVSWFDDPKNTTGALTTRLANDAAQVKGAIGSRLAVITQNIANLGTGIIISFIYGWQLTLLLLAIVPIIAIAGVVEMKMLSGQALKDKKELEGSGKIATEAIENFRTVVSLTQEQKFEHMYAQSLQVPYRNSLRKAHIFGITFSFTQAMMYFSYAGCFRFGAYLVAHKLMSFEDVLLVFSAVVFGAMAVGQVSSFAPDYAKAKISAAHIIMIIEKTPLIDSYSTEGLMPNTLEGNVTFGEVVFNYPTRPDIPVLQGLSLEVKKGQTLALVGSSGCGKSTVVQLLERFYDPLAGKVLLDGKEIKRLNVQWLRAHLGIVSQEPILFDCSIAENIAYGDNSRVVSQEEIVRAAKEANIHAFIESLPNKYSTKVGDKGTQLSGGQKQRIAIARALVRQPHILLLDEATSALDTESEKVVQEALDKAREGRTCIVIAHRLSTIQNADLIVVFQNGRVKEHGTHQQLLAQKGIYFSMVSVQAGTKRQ
Source text: EC50 was defined as the concentration at which the modulator can reduce the IC50 of an anticancer drug by half in the P-gp-overexpressing cell lines. […] The P-gp-modulating activity of methylated catechin derivatives was further studied by measuring the EC50. […] Three P-gp-overexpressing cell lines were employed, including breast cancer cell line LCC6MDR, mouse leukemia cell line P388ADR, and human leukemia cell line K562/P-gp. The anticancer drugs tested included DOX, PTX, and VCR. All values were presented as mean ± standard error of mean. N = 3–6 independent experiments.
About 6500 cells of LCC6MDR or 10,000 cells of P388ADR or K562/P-gp were seeded to each well of 96-well plate and were then incubated at 37 °C overnight. […] Cell viability was determined using CellTiter 96 AQueous Assay (Promega, Madison, WI, USA, #G1111) as reported previously [38]. The % of cell survival, IC50 of anticancer drugs towards the cell line, and EC50 of modulators were analyzed using nonlinear regression in Prism 5.0.

P-gp [3] = molecular target: T1, P-gp; design: expressed in transfected cells; host or cells: MDA435/LCC6MDR (human breast cancer line, gift of Dr. Robert Clarke); details: Cpds at 1 μM; IC50 of PTX without/with modulator; cited from earlier work
P388ADR leukemia = assay: In vivo efficacy in reversing DOX resistance in murine leukemia P388ADR model; design: species or system B6D2F1 mice
Protocol: as §1
About 1 × 10^6 cells of P388ADR were i.p. inoculated in male B6D2F1 mice aged 5–7 weeks old. There were 3 groups: (1) control group with no treatment, (2) DOX (3 mg/kg i.p.) alone, and (3) cotreatment with EC31 (60 mg/kg i.p.) being injected 1 h prior to DOX (3 mg/kg i.p.) administration. In group 2, DOX was i.p. injected on days 2, 6, 10, 14, and 18 only. In group 3, EC31 was i.p. injected on days 1, 2, 5, 6, 9, 10, 13, 14, 17, and 18, and DOX was i.p. injected on days 2, 6, 10, 14, and 18. Before each treatment, 1.5 mg/mL of DOX was freshly prepared using PBS. Mice survival and body weight were monitored during the study period.

P-gp [4] = molecular target: T1, P-gp; assay: Intracellular EC31 or PTX accumulation in LCC6 versus LCC6MDR cells; format: cell-based; design: expressed in transfected cells; host or cells: MDA435/LCC6MDR (human breast cancer line, gift of Dr. Robert Clarke); details: from accumulation and efflux in cells with or without P-gp
Source text: N = 3 independent experiments.

[5] = EC31 30 mg/kg i.p. + DOX 0.9 mg/kg i.v.

COc1cc(OC)c2c(c1)O[C@H](c1ccc(OC)c(OC)c1)[C@H](OC(=O)c1ccc(F)c(NC(=O)c3cc(OC)c(OC)c(OC)c3)c1)C2 [EC31]
AUC(0-t) ([1]; ip, 30 mg/kg): 17800 ng·h/mL
Cmax ([1]; ip, 30 mg/kg): 5610 ng/mL
Tmax ([1]; ip, 30 mg/kg): 1 h
half-life ([1]; ip, 30 mg/kg): 3.33 h
AUC(0-inf) ([1]; ip, 30 mg/kg): 18400 ng·h/mL
AUC(0-t) ([1]; iv, 10 mg/kg): 7240 ng·h/mL
half-life ([1]; iv, 10 mg/kg): 0.912 h
AUC(0-inf) ([1]; iv, 10 mg/kg): 7290 ng·h/mL
median survival time (K562/P-gp leukemia; [5]): 37.0 days
prolongation of animal survival compared to DOX alone (K562/P-gp leukemia; [5]): 5 days
ILS% (increase in lifespan) (K562/P-gp leukemia; EC31 30 mg/kg i.p. + DOX 0.9 mg/kg i.v. compared to DOX alone): 15.6%
EC50 (P-gp [2]; DOX Resistance, K562/P-gp, concentration that reduces IC50 of DOX by half): 93 ± 33 nM
EC50 (P-gp [2]; VCR Resistance, K562, concentration that reduces IC50 of VCR by half, column head prints K562): 37 ± 10 nM
LCC6MDR P-gp-modulating activity RF (relative fold) (P-gp [3]): 69.3
median survival (P388ADR leukemia; EC31 60 mg/kg i.p. + DOX 3 mg/kg i.p.): 21.5 days
ILS% (increase in lifespan) (P388ADR leukemia; EC31 60 mg/kg i.p. + DOX 3 mg/kg i.p. compared to DOX alone): 30.3%
P-gp transport substrate status (P-gp [4]): not a transport substrate of P-gp
